{
  "source": "PubChem BioAssay AID1963975",
  "about": "(Molecular Pharmacology Branch, DTP, NCI, 2024);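 note: spheroids exposed to agents for 7 days before viability read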;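 for viability, T/C: 100% = DMSO vehicle treated spheroids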",
  "system": "624824-186-R-J2-PDC multicell spheroids, viability",
  "test": "Anticancer human tumor 624824-186-R-J2-PDC patient-derived colon adenocarcinoma cell line growth inhibition [PI3K]",
  "conditions": "for IC50: curve of first compound; for viability, T/C: stronger effect = lower value",
  "text": "Combinatorial screen of targeted agents with the PI3K inhibitors inavolisib, alpelisib, duvelisib, and copanlisib in multi-cell type tumor spheroids\nA high-throughput screen of multi-cell type tumor spheroids was designed to identify active combinations of targeted small molecules and PI3K pathway inhibitors. Complex spheroids include a stromal component modeled by human endothelial cells (HUVEC) and fibroblasts modeled by human mesenchymal stem cells (MSCs). The concentration ranges selected for each drug and investigational agent were based upon clinically achievable concentrations if the clinical Cmax of the agent was known.\nCompounds. The drugs and investigational agents: inavolisib (NSC800729), alpelisib (NSC765974), duvelisib (NSC772469), copanlisib (NSC816437), ipatasertib (NSC767898), afuresertib (NSC778305), talazoparib (NSC767125), sapanisertib (NSC764658), selumetinib (NSC741078), tovorafenib (DAY101, NSC766906), vemurafenib (NSC761431), ravoxertinib (NSC781343), sotorasib (NSC818433), MRTX1133 (NSC 836407), abemaciclib (NSC 768073), palbociclib (NSC758247), venetoclax (NSC 766270), SY5609 (NSC837396), enzalutamide (NSC755605), and darolutamide (NSC825331), were obtained from the National Cancer Institute (NCI) Developmental Therapeutics Program Chemical Repository. The FDA-approved anticancer drug set is available from the NCI Developmental Therapeutics Program. […] The stock solutions were prepared in dimethyl sulfoxide (DMSO, Sigma-Aldrich, St. Louis, MO, cat. D2650) at 800-fold the tested concentration and stored at -70 degrees C prior to their use. All drugs and investigational agents were tested over a range starting from a high concentration at or near the clinical Cmax and decreasing in half-log increments. If the clinical Cmax for an agent had not been determined, the highest concentration tested was 10 microM.\nCell Culture. All cells were maintained in an incubator at 37 degrees C and 5% CO2 with 95% humidity. The PDC lines were cultured according to standard operating procedures established by the NCI PDMR (https://pdmr.cancer.gov/sops/default.htm). All PDCs were thawed and cultured in Matrigel-coated flasks prepared with a working solution of 1X Ham's F-12 nutrient mix, without supplementation (Invitrogen, Waltham, MA, cat. 11765054), 100 U/mL penicillin-streptomycin (Invitrogen, cat. 15140122), and 2.5% Matrigel (Corning Inc., Corning, NY, cat. 354248) for the first three passages. The 354836-022-R-J1-PDC, 475296-252-R-J1-PDC, and 997726-040-R-J2-PDC lines were cultured in 6A media, which includes advanced DMEM/F-12 (Thermo Fisher Scientific, cat. 12634028), 10 mM HEPES (Thermo Fisher Scientific, cat. 15630080), 1X GlutaMAX supplement (Thermo Fisher Scientific, cat. 35050061), 0.1 mg/mL primocin (InvivoGen, San Diego, CA, cat. ant-pm-2), 10% defined fetal bovine serum, heat inactivated (HyClone Laboratories Inc., Logan, UT, cat. SH30070.03HI), 50% L-WRN conditioned media (ATCC, cat. CRL-3276), 1.25 mM N-Acetyl-L-cysteine (Sigma-Aldrich, cat. A9165), 10 mM nicotinamide (Sigma-Aldrich, cat. N0636), 1X B-27 supplement (Thermo Fisher Scientific, cat. 17504044), 1X N-2 supplement (Thermo Fisher Scientific, cat. 17502048), and 10 microM Y-27632 dihydrochloride (Tocris Bioscience, Bristol, United Kingdom, cat. 1254). The 624824-186-R-J2-PDC line was cultured in 6C/Colon 1B media, which includes all 6A media components plus 50 ng/mL human EGF recombinant protein (Thermo Fisher Scientific, cat. PHG0311). […]",
  "data": [
    {"smiles": "CNC(=O)c1ccc(N2C(=S)N(c3ccc(C#N)c(C(F)(F)F)c3)C(=O)C2(C)C)cc1F", "note": "+ Cc1nc(NC(=O)N2CCCC2C(N)=O)sc1-c1ccnc(C(C)(C)C(F)(F)F)c1", "values": [
      {"measurement": "IC50", "setting": "second compound 0.0316 µM", "result": "> 10", "unit": "µM"},
      {"measurement": "IC50", "setting": "second compound 0.1 µM", "result": "> 10", "unit": "µM"},
      {"measurement": "IC50", "setting": "second compound 0.316 µM", "result": "> 10", "unit": "µM"},
      {"measurement": "IC50", "setting": "second compound 1 µM", "result": "> 10", "unit": "µM"},
      {"measurement": "IC50", "setting": "second compound 3.16 µM", "result": "> 10", "unit": "µM"},
      {"measurement": "IC50", "setting": "second compound 10 µM", "result": "> 10", "unit": "µM"},
      {"measurement": "viability, T/C", "setting": "second compound 0.0316 µM, first compound 0.0316 µM", "result": 87.5, "unit": "%"},
      {"measurement": "viability, T/C", "setting": "second compound 0.0316 µM, first compound 0.1 µM", "result": 108, "unit": "%"},
      {"measurement": "viability, T/C", "setting": "second compound 0.0316 µM, first compound 0.316 µM", "result": 102, "unit": "%"},
      {"measurement": "viability, T/C", "setting": "second compound 0.0316 µM, first compound 1 µM", "result": 108, "unit": "%"},
      {"measurement": "viability, T/C", "setting": "second compound 0.0316 µM, first compound 3.16 µM", "result": 94.1, "unit": "%"},
      {"measurement": "viability, T/C", "setting": "second compound 0.0316 µM, first compound 10 µM", "result": 121, "unit": "%"},
      {"measurement": "viability, T/C", "setting": "second compound 0.1 µM, first compound 0.0316 µM", "result": 85.6, "unit": "%"},
      {"measurement": "viability, T/C", "setting": "second compound 0.1 µM, first compound 0.1 µM", "result": 87.5, "unit": "%"},
      {"measurement": "viability, T/C", "setting": "second compound 0.1 µM, first compound 0.316 µM", "result": 78.3, "unit": "%"},
      {"measurement": "viability, T/C", "setting": "second compound 0.1 µM, first compound 1 µM", "result": 90.6, "unit": "%"},
      {"measurement": "viability, T/C", "setting": "second compound 0.1 µM, first compound 3.16 µM", "result": 90.4, "unit": "%"},
      {"measurement": "viability, T/C", "setting": "second compound 0.1 µM, first compound 10 µM", "result": 114, "unit": "%"},
      {"measurement": "viability, T/C", "setting": "second compound 0.316 µM, first compound 0.0316 µM", "result": 76.1, "unit": "%"},
      {"measurement": "viability, T/C", "setting": "second compound 0.316 µM, first compound 0.1 µM", "result": 86.1, "unit": "%"},
      {"measurement": "viability, T/C", "setting": "second compound 0.316 µM, first compound 0.316 µM", "result": 97.8, "unit": "%"},
      {"measurement": "viability, T/C", "setting": "second compound 0.316 µM, first compound 1 µM", "result": 94.4, "unit": "%"},
      {"measurement": "viability, T/C", "setting": "second compound 0.316 µM, first compound 3.16 µM", "result": 81.9, "unit": "%"},
      {"measurement": "viability, T/C", "setting": "second compound 0.316 µM, first compound 10 µM", "result": 96.2, "unit": "%"},
      {"measurement": "viability, T/C", "setting": "second compound 1 µM, first compound 0.0316 µM", "result": 79.1, "unit": "%"},
      {"measurement": "viability, T/C", "setting": "second compound 1 µM, first compound 0.1 µM", "result": 78.9, "unit": "%"},
      {"measurement": "viability, T/C", "setting": "second compound 1 µM, first compound 0.316 µM", "result": 99, "unit": "%"},
      {"measurement": "viability, T/C", "setting": "second compound 1 µM, first compound 1 µM", "result": 96.7, "unit": "%"},
      {"measurement": "viability, T/C", "setting": "second compound 1 µM, first compound 3.16 µM", "result": 113, "unit": "%"},
      {"measurement": "viability, T/C", "setting": "second compound 1 µM, first compound 10 µM", "result": 90.9, "unit": "%"},
      {"measurement": "viability, T/C", "setting": "second compound 3.16 µM, first compound 0.0316 µM", "result": 81.3, "unit": "%"},
      {"measurement": "viability, T/C", "setting": "second compound 3.16 µM, first compound 0.1 µM", "result": 92.2, "unit": "%"},
      {"measurement": "viability, T/C", "setting": "second compound 3.16 µM, first compound 0.316 µM", "result": 89.1, "unit": "%"},
      {"measurement": "viability, T/C", "setting": "second compound 3.16 µM, first compound 1 µM", "result": 84.7, "unit": "%"},
      {"measurement": "viability, T/C", "setting": "second compound 3.16 µM, first compound 3.16 µM", "result": 101, "unit": "%"},
      {"measurement": "viability, T/C", "setting": "second compound 3.16 µM, first compound 10 µM", "result": 86.4, "unit": "%"},
      {"measurement": "viability, T/C", "setting": "second compound 10 µM, first compound 0.0316 µM", "result": 81.5, "unit": "%"},
      {"measurement": "viability, T/C", "setting": "second compound 10 µM, first compound 0.1 µM", "result": 74.8, "unit": "%"},
      {"measurement": "viability, T/C", "setting": "second compound 10 µM, first compound 0.316 µM", "result": 73, "unit": "%"},
      {"measurement": "viability, T/C", "setting": "second compound 10 µM, first compound 1 µM", "result": 73.9, "unit": "%"},
      {"measurement": "viability, T/C", "setting": "second compound 10 µM, first compound 3.16 µM", "result": 79.1, "unit": "%"},
      {"measurement": "viability, T/C", "setting": "second compound 10 µM, first compound 10 µM", "result": 65, "unit": "%"}
    ]}
  ]
}
